# Earlier results, collected in PubChem BioAssay AID1259409 (Chemical Carcinogenesis Research Information System (CCRIS), 2018).
# Tested on: rodent chemically induced tumor inhibition, incidence and multiplicity
# Assay: CCRIS tumor inhibitor studies
# Settings: Promoter: NONE USED
compound,measurement,setting,value
CC(C)Cc1ccc(C(C)C(=O)O)cc1 (stereo not given),"tumour outcome (control, treated, inhibition, significance)","Carcinogen: 4-(METHYLNITROSAMINO)-1-(3-PYRIDYL-1-BUTANONE, 64091-91-4, Dose [Inhibitor]: 0, 263 MG/KG IN DIET FOR 25 WK BEGINNING 2 WK PRIOR TO CARCINOGEN TREATMENT (STUDY DURATION: 25 WK), Route [Inhibitor]: ORAL, Species: MOUSE, Strain/Sex: STRAIN-A/FEMALE, Target Tissue: Type of Lesion: FORESTOMACH: TUMOR, Dose [Carcinogen]: 9.1 MG IN DRINKING WATER FOR 7 WK","7/25 (28%), 0/25 (0%), 100%, p<0.01"
same,"tumour outcome (control, treated, inhibition, significance)","Carcinogen: AZOXYMETHANE, 25843-45-2, Dose [Inhibitor]: 0, 400 PPM IN DIET BEGINNING 1 WK PRIOR TO CARCINOGEN TREATMENT FOR DURATION OF STUDY (STUDY DURATION: 54 WK), Route [Inhibitor]: ORAL, Species: RAT, Strain/Sex: F344/MALE, Target Tissue: Type of Lesion: COLON: ADENOCARCINOMA, Dose [Carcinogen]: 15 MG/KG/BW 1/WK FOR 2 WK","58%, 33%, 43%, p<0.05"
same,"tumour outcome (control, treated, inhibition, significance)","Carcinogen: AZOXYMETHANE, 25843-45-2, Dose [Inhibitor]: 0, 200 PPM IN DIET BEGINNING 1 WK PRIOR TO CARCINOGEN TREATMENT FOR DURATION OF STUDY (STUDY DURATION: 54 WK), Route [Inhibitor]: ORAL, Species: RAT, Strain/Sex: F344/MALE, Target Tissue: Type of Lesion: COLON: ADENOCARCINOMA, Dose [Carcinogen]: 15 MG/KG/BW 1/WK FOR 2 WK","58%, 41%, 29%, not calculated"
same,"tumour outcome (control, treated, inhibition, significance)","Carcinogen: AZOXYMETHANE, 25843-45-2, Dose [Inhibitor]: 0, 200 PPM IN DIET BEGINNING 1 WK PRIOR TO CARCINOGEN TREATMENT FOR DURATION OF STUDY (STUDY DURATION: 54 WK), Route [Inhibitor]: ORAL, Species: RAT, Strain/Sex: F344/MALE, Target Tissue: Type of Lesion: COLON: ADENOMA, Dose [Carcinogen]: 15 MG/KG/BW 1/WK FOR 2 WK","6%, 6%, 0%, not calculated"
same,outcome,"Carcinogen: AZOXYMETHANE, 25843-45-2, Dose [Inhibitor]: 0, 400 PPM IN DIET BEGINNING 1 WK PRIOR TO CARCINOGEN TREATMENT FOR DURATION OF STUDY (STUDY DURATION: 54 WK), Route [Inhibitor]: ORAL, Species: RAT, Strain/Sex: F344/MALE, Target Tissue: Type of Lesion: COLON: ADENOMA, Dose [Carcinogen]: 15 MG/KG/BW 1/WK FOR 2 WK","6%, 0,%, 100%, not calculated"
COc1cc(OC)c2ccc(=O)oc2c1,"tumour outcome (control, treated, inhibition, significance)","Carcinogen: 7,12-DIMETHYLBENZ(A)ANTHRACENE, 57-97-6, Dose [Inhibitor]: 0.068 MMOL/G IN DIET FOR 8 D BEGINNING 7 D PRIOR TO CARCINOGEN DOSE (STUDY DURATION: 23 WK), Route [Inhibitor]: ORAL, Species: RAT, Strain/Sex: SPRAGUE-DAWLEY/FEMALE, Target Tissue: Type of Lesion: MAMMARY GLAND: TUMOR, Dose [Carcinogen]: 12 MG IN 1.0 ML OLIVE OIL ONCE ON D 7 OF EXPERIMENT","85%, 38%, 55%, p<0.05"
same,"tumour outcome (control, treated, inhibition, significance)","Carcinogen: BENZO[A]PYRENE, 50-32-8, Dose [Inhibitor]: 0.034 MMOL/G IN DIET BEGINNING 1 WK PRIOR TO FIRST CARCINOGEN DOSE AND CONTINUING FOR 3 D POST LAST CARCINOGEN DOSE FOR, Route [Inhibitor]: ORAL, Species: MOUSE, Strain/Sex: ICR/FEMALE, Target Tissue: Type of Lesion: FORESTOMACH: TUMOR, Dose [Carcinogen]: 1 MG IN 0.2 ML CORN OIL 2/WK FOR 4 WK","100%, 94%, 6%, not significant"
CC(C)=CCC/C(C)=C/CC/C(C)=C/CC/C=C(\C)CC/C=C(\C)CCC=C(C)C,"tumour outcome (control, treated, inhibition, significance)","Carcinogen: BENZO[A]PYRENE, 50-32-8, Dose [Inhibitor]: 25 MG IN 0.1 ML ACETONE 3/WK ADMINISTERED SIMULTANEOUSLY WITH CARCINOGEN FOR DURATION OF STUDY (STUDY DURATION: 440 D), Route [Inhibitor]: DERMAL, Species: MOUSE, Strain/Sex: ICR/FEMALE, Target Tissue: Type of Lesion: SKIN: PAPILLOMA, Dose [Carcinogen]: 5 UG IN 0.1 ML ACETONE 3/WK FOR DURATION OF STUDY","16/50 (32%), 1/50 (2%), 94%, not calculated"
same,"tumour outcome (control, treated, inhibition, significance)","Carcinogen: BENZO[A]PYRENE, 50-32-8, Dose [Inhibitor]: 25 MG IN 0.1 ML ACETONE 3/WK ADMINISTERED SIMULTANEOUSLY WITH CARCINOGEN FOR DURATION OF STUDY (STUDY DURATION: 440 D), Route [Inhibitor]: DERMAL, Species: MOUSE, Strain/Sex: ICR/FEMALE, Target Tissue: Type of Lesion: SKIN: SQUAMOUS CARCINOMA, Dose [Carcinogen]: 5 UG IN 0.1 ML ACETONE 3/WK FOR DURATION OF STUDY","12/50 (24%), 0/50 (0%), 100%, not calculated"
O=c1[nH]c(=O)c2[nH]cnc2[nH]1,"tumour outcome (control, treated, inhibition, significance)","Carcinogen: URETHANE, 51-79-6, Dose [Inhibitor]: 0.05 UMOL/G BW GIVEN AT 6 HR INTERVALS FOR 36 HR AFTER CARCINOGEN TREATMENT (STUDY DURATION: 5 MO), Route [Inhibitor]: INTRAPERITONEAL, Species: MOUSE, Strain/Sex: ICR/FEMALE, Target Tissue: Type of Lesion: LUNG: PAPILLARY ADENOMA, Dose [Carcinogen]: 0.1 MG/G BW ONCE","31/59 (53%), 26/40 (65%), -23%, not significant"
